Laboratory results: patent publication US7998965B2, “Glutamate aggrecanase inhibitors” (Wyeth LLC, priority 2005, dated 2011)
Where two headings read alike, the source gives them in different places.

Molecular target: T1, purified recombinant human Aggrecanase-1 (rAgg1) (Homo sapiens, UniProt O75173)
T1 sequence (O75173 213-837): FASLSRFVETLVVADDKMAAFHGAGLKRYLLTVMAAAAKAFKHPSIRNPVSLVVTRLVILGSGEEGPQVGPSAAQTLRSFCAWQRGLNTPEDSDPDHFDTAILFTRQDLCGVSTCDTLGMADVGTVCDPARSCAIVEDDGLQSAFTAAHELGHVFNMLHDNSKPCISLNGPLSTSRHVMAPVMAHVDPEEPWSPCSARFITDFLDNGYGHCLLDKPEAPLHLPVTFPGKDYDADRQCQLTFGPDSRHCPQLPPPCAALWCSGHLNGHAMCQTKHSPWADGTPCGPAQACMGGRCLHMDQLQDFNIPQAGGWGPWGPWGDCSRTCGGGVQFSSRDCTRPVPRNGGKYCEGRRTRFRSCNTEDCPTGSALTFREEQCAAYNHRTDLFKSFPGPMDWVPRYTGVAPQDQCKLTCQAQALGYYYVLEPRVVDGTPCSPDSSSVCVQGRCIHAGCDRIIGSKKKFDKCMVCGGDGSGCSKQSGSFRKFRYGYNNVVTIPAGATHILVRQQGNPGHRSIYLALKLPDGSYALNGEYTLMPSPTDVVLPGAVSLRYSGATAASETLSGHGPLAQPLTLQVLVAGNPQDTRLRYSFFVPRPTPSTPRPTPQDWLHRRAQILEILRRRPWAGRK
Experiment: In vitro fluorescence screen for Aggrecanase-1 inhibitors
Type: biochemical
Settings: for IC50: read-out: Agg1 IC50; for Ki: enzyme not given, column follows Agg1 IC50, read-out: Ki

| SMILES | IC50 (Table 1) | further results |
| --- | --- | --- |
| O=C(O)CCC(NC(=O)c1ccc(-c2ccccc2)cc1)C(=O)O (stereo in doubt) [Example 2, N-(1,1′-biphenyl-4-ylcarbonyl)-D-glutamic acid] | 111 nM |  |
| O=C(O)CC[C@H](NC(=O)c1ccc(Nc2ncccn2)cc1)C(=O)O [Example 1, N-[4-(pyrimidin-2-ylamino)benzoyl]-L-glutamic acid] | 900 nM |  |
| NC(=O)[C@H](CCC(=O)O)NC(=O)c1ccc(Nc2ncccn2)cc1 [Example 3, N^2-[4-(pyrimidin-2-ylamino)benzoyl]-L-alpha-glutamine] | 12700 nM |  |
| NC(=O)[C@@H](CCC(=O)O)NC(=O)c1ccc(-c2ccccc2)cc1 [Example 4, N^2-(1,1′-biphenyl-4-ylcarbonyl)-D-alpha-glutamine] | 1100 nM |  |
| O=C(O)CC[C@H](NC(=O)c1ccc(-c2ccccc2)cc1)C(=O)NCCCCO [Example 5, N^2-(1,1′-biphenyl-4-ylcarbonyl)-N^1-(4-hydroxybutyl)-L-alpha-glutamine] | 1800 nM |  |
| Nc1ccc(CNC(=O)[C@H](CCC(=O)O)NC(=O)c2ccc(-c3ccccc3)cc2)cc1 [Example 8AAAA, N^1-(4-aminobenzyl)-N^2-(1,1′-biphenyl-4-ylcarbonyl)-L-α-glutamine] | 100 nM |  |
| Cc1cccc(CNC(=O)[C@H](CCC(=O)O)NC(=O)c2ccc3c(c2)Cc2ccccc2-3)c1 [Example 8CCCCC, N^2-(9H-fluoren-2-ylcarbonyl)-N^1-(3-methylbenzyl)-L-α-glutamine] |  | IC50 (Table 2): 107 nM |
| O=C(O)CC[C@H](NC(=O)c1ccc(-c2ccccc2)cc1)C(=O)NCCN1CCOCC1 [Example 8DDD, N^2-(biphenyl-4-ylcarbonyl)-N^1-(2-morpholin-4-ylethyl)-L-α-glutamine] | 300 nM |  |
| Nc1cccc(CNC(=O)[C@H](CCC(=O)O)NC(=O)c2ccc(-c3ccccc3)cc2)c1 [Example 8DDDD, N^1-(3-aminobenzyl)-N^2-(1,1′-biphenyl-4-ylcarbonyl)-L-α-glutamine] | 110 nM |  |
| CCN(CC)C(=O)[C@H](CCC(=O)O)NC(=O)c1ccc(-c2ccccc2)cc1 [Example 8EEE, N^2-(biphenyl-4-ylcarbonyl)-N^1,N^1-diethyl-L-α-glutamine] | 7900 nM |  |
| O=C(O)CC[C@H](NC(=O)c1ccc(-c2ccccc2)cc1)C(=O)NCc1ccccc1 [Example 8EEEE, N^1-benzyl-N^2-(1,1-biphenyl-4-ylcarbonyl)-L-α-glutamine] | 400 nM |  |
| CCCCN(C)C(=O)[C@H](CCC(=O)O)NC(=O)c1ccc(-c2ccccc2)cc1 [Example 8EEEEEE, N^2-(biphenyl-4-ylcarbonyl)-N-butyl-N-methyl-L-α-glutamine] |  | IC50 (Table 2): 5000 nM |
| CC(C)(Cc1ccc(F)cc1)NC(=O)[C@@H](CCC(=O)O)NC(=O)c1ccc(-c2ccccc2)cc1 [Example 8FFFF, N^2-(biphenyl-4-ylcarbonyl)-N^1-[2-(4-fluorophenyl)-1,1-dimethylethyl]-D-α-glutamine] | 3600 nM |  |
| COc1ccc(CCN(C)C(=O)[C@H](CCC(=O)O)NC(=O)c2ccc(-c3ccccc3)cc2)cc1OC [Example 8GGGGGG, N^2-(biphenyl-4-ylcarbonyl)-N-[2-(3,4-dimethoxyphenyl)ethyl]-N-methyl-L-α-glutamine] |  | IC50 (Table 2): 4200 nM |
| O=C(O)CCC(NC(=O)c1ccc(Nc2ncccn2)cc1)C(=O)NCc1ccccc1 (stereo not drawn) [Example 8HHHH] | 200 nM |  |
| Cc1ccc(CNC(=O)[C@H](CCC(=O)O)NC(=O)c2ccc(-c3ccccc3)cc2)cc1 [Example 8III, N^2-(1,1′-biphenyl-4-ylcarbonyl)-N^1-(4-methylbenzyl)-L-α-glutamine] | 120 nM |  |
| O=C(O)CC[C@H](NC(=O)c1ccc2c(c1)Cc1ccccc1-2)C(=O)NCCCc1ccccc1 [Example 8IIII, N^2-(9H-fluoren-2-ylcarbonyl)-N^1-(3-phenylpropyl)-L-α-glutamine] | < 30 nM | Ki (Table 1): 9 nM |
| O=C(O)CC[C@H](NC(=O)c1cccc2c1Cc1ccccc1-2)C(=O)NCCCc1ccccc1 [Example 8JJJJ, N^2-(9H-fluoren-1-ylcarbonyl)-N^1-(3-phenylpropyl)-L-α-glutamine] | > 50000 nM |  |
| COc1cc(CNC(=O)[C@H](CCC(=O)O)NC(=O)c2ccc3c(c2)Cc2ccccc2-3)cc(OC)c1OC [Example 8KKKK, N^2-(9H-fluoren-2-ylcarbonyl)-N^1-(3,4,5-trimethoxybenzyl)-L-α-glutamine] | < 30 nM | Ki (Table 1): 4 nM |
| CC(C)(C)CCNC(=O)[C@H](CCC(=O)O)NC(=O)c1ccc(-c2ccccc2)cc1 [Example 8LLL, N^2-(biphenyl-4-ylcarbonyl)-N^1-(3,3-dimethylbutyl)-L-α-glutamine] | 230 nM |  |
| COc1cc(CNC(=O)[C@H](CCC(=O)O)NC(=O)c2cccc3c2Cc2ccccc2-3)cc(OC)c1OC [Example 8LLLL, N^2-(9H-fluoren-1-ylcarbonyl)-N^1-(3,4,5-trimethoxybenzyl)-L-α-glutamine] |  | Agg1 IC50 (nM) (Table 1): no inh |
| COc1cc(CNC(=O)[C@H](CCC(=O)O)NC(=O)c2ccc3c(c2)C(=O)c2ccccc2-3)cc(OC)c1OC [Example 8MMMM, N^2-[(9-oxo-9H-fluoren-2-yl)carbonyl]-N^1-(3,4,5-trimethoxybenzyl)-L-α-glutamine] | 47 nM | Ki (Table 1): 57 nM |
| COc1cc(CNC(=O)[C@H](CCC(=O)O)NC(=O)c2ccc(Oc3ccccc3)cc2)cc(OC)c1OC [Example 8NNNN, N^2-(4-phenoxybenzoyl)-N^1-(3,4,5-trimethoxybenzyl)-L-α-glutamine] | 3400 nM |  |
| O=C(O)CC[C@H](NC(=O)c1ccc(Br)cc1)C(=O)NCc1ccccc1 [Example 8NNNNNN, N^1-benzyl-N^2-(4-bromobenzoyl)-L-α-glutamine] | ~40000 nM |  |
| CCCCCCNC(=O)[C@H](CCC(=O)O)NC(=O)c1ccc2c(c1)Cc1ccccc1-2 [Example 8OOOO, N^2-(9H-fluoren-2-ylcarbonyl)-N^1-hexyl-L-α-glutamine] | 52 nM | Ki (Table 1): 60 nM |
| CC(=O)NCCNC(=O)[C@H](CCC(=O)O)NC(=O)c1ccc(-c2ccccc2)cc1 [Example 8OOOOOO, N^1-[2-(acetylamino)ethyl]-N^2-(1,1′-biphenyl-4-ylcarbonyl)-L-α-glutamine] | 670 nM |  |

The next lines start with results.

| IC50 (Table 1) | SMILES | further results |
| --- | --- | --- |
| 300 nM | CC(C)(CO)NC(=O)[C@H](CCC(=O)O)NC(=O)c1ccc(-c2ccccc2)cc1 [Example 6B, N^2-(biphenyl-4-ylcarbonyl)-N^1-(2-hydroxy-1,1-dimethylethyl)-L-α-glutamine] |  |
| 150 nM | CC(C)(C)CC(C)(C)NC(=O)[C@H](CCC(=O)O)NC(=O)c1ccc(-c2ccccc2)cc1 [Example 6C, N^2-(biphenyl-4-ylcarbonyl)-N^1-(1,1,3,3-tetramethylbutyl)-L-α-glutamine] |  |
| 45 nM | CC(C)(Cc1ccccc1)NC(=O)[C@H](CCC(=O)O)NC(=O)c1ccc2c(c1)Cc1ccccc1-2 [Example 6D, N^1-(1,1-dimethyl-2-phenylethyl)-N^2-(9H-fluoren-2-ylcarbonyl)-L-α-glutamine] |  |
| 56 nM | CC(C)(Cc1ccc(Cl)cc1)NC(=O)[C@H](CCC(=O)O)NC(=O)c1ccc2c(c1)Cc1ccccc1-2 [Example 6E, N^1-[2-(4-chlorophenyl)-1,1-dimethylethyl]-N^2-(9H-fluoren-2-ylcarbonyl)-L-α-glutamine] |  |
| 370 nM | O=C(O)CC[C@H](NC(=O)c1ccc(-c2ccccc2)cc1)C(=O)NCc1cc(F)cc(F)c1 [Example 8AA, N^2-(1,1′-biphenyl-4-ylcarbonyl)-N^1-(3,5-difluorobenzyl)-L-α-glutamine] |  |
| 200 nM | Cc1ccccc1CNC(=O)[C@H](CCC(=O)O)NC(=O)c1ccc(-c2ccccc2)cc1 [Example 8EE, N^2-(1,1′-biphenyl-4-ylcarbonyl)-N^1-(2-methylbenzyl)-L-α-glutamine] |  |
| 160 nM | Cc1cccc(CNC(=O)[C@H](CCC(=O)O)NC(=O)c2ccc(-c3ccccc3)cc2)c1C [Example 8HH, N^2-(1,1′-biphenyl-4-ylcarbonyl)-N^1-(2,3-dimethylbenzyl)-L-α-glutamine] |  |
| 500 nM | O=C(O)CC[C@H](NC(=O)c1ccc(-c2ccccc2)cc1)C(=O)NCC1C2CC3CC(C2)CC1C3 (stereo partly drawn) [Example 8I, N^1-(2-adamantylmethyl)-N^2-(1,1′-biphenyl-4-ylcarbonyl)-L-α-glutamine] |  |
| 360 nM | COCCNC(=O)[C@H](CCC(=O)O)NC(=O)c1ccc(-c2ccccc2)cc1 [Example 8J, N^2-(1,1′-biphenyl-4-ylcarbonyl)-N^1-(2-methoxyethyl)-L-α-glutamine] |  |
| 300 nM | COc1ccc(CNC(=O)[C@H](CCC(=O)O)NC(=O)c2ccc(-c3ccccc3)cc2)cc1 [Example 8K, N^2-(1,1′-biphenyl-4-ylcarbonyl)-N^1-(4-methoxybenzyl)-L-α-glutamine] |  |
| 180 nM | CC(C)(C)c1ccc(CNC(=O)[C@H](CCC(=O)O)NC(=O)c2ccc(-c3ccccc3)cc2)cc1 [Example 8KK, N^2-(1,1′-biphenyl-4-ylcarbonyl)-N^1-(4-tert-butylbenzyl)-L-α-glutamine] |  |
| 290 nM | O=C(O)CC[C@H](NC(=O)c1ccc(-c2ccccc2)cc1)C(=O)NCc1cccc2ccccc12 [Example 8N, N^2-(1,1′-biphenyl-4-ylcarbonyl)-N^1-(1-naphthylmethyl)-L-α-glutamine] |  |
